Measurements: patent US20090318431A1, “BENZOXAZINONE AND BENZOXAZEPINONE OXAZOLIDINONES AS ANTIBACTERIAL AGENTS” (Pfizer Inc., priority 2006, published 2009)
Values after ≈ are worked out from the molar mass of the structure shown.

How the values were obtained:
Type in all cases: cell-based
S. pneumoniae SV1 SP-3 = experiment: in vitro antibacterial activity (MIC), S. pneumoniae; conditions: Streptococcus pneumoniae, SV1SP3, strain SV1 SP-3, lowest concentration preventing macroscopically visible growth
Excerpt: (§1) The in vitro antibacterial activity of the compounds of the present invention may be assessed by following procedures recommended in (1) National Committee for Clinical Laboratory Standards (January 2003), Methods for dilution antimicrobial tests for bacteria that grow aerobically, Approved Standard (6th ed), M7-A6, NCCLS, Wayne, Pa.; (2) National Committee for Clinical Laboratory Standards (March 2001), Methods for antimicrobial susceptibility testing of anaerobic bacteria, Approved Standard (5th ed), M11-A4, NCCLS, Wayne, Pa.; (3) National Committee for Clinical Laboratory Standards (Jan. 2003), MIC testing supplemental tables, M100-S13 (for use with M7-A6), NCCLS, Wayne, Pa.; and (4) Murray P R, Baron E J, Jorgensen J H, et al. Manual of Clinical Microbiology (8th ed) Washington, D.C.: American Society for Microbiology Press, 2003. The antibacterial activity can be presented in the form of MIC value. The MIC value is the lowest concentration of drug, which prevented macroscopically visible growth under the conditions of the test.

S. aureus UC-76 SA-1 = experiment: in vitro antibacterial activity (MIC), S. aureus; conditions: Staphylococcus aureus, UC76, strain UC-76 SA-1, lowest concentration preventing macroscopically visible growth
Excerpt: as §1

E. faecalis MGH-2 EF 1-1 = experiment: in vitro antibacterial activity (MIC), E. faecalis; conditions: Enterococcus faecalis, MGH2EF11, strain MGH-2 EF 1-1, lowest concentration preventing macroscopically visible growth
Excerpt: as §1

Compound | MIC (S. pneumoniae SV1 SP-3) [µg/mL] | MIC (S. aureus UC-76 SA-1) [µg/mL] | MIC (E. faecalis MGH-2 EF 1-1) [µg/mL]
CN1C(=O)OCc2cc(N3C[C@H](Cn4ccnn4)OC3=O)ccc21 [Example 7, (R)-6-(5-((1H-1,2,3-triazol-1-yl)methyl)-2-oxooxazolidin-3-yl)-1-methyl-1H-benzo[d][1,3]oxazin-2(4H)-one] | 16 (≈ 48.6 µM) | 16 (≈ 48.6 µM) | 32 (≈ 97.2 µM)
CN1C(=O)OCc2cc(N3C[C@H](C(N)=O)OC3=O)cc(F)c21 [Example 8, (R)-3-(8-fluoro-1-methyl-2-oxo-2,4-dihydro-1H-benzo[d][1,3]oxazin-6-yl)-2-oxooxazolidine-5-carboxamide] | 16 (≈ 51.7 µM) | 8 (≈ 25.9 µM) | 8 (≈ 25.9 µM)
CNC(=O)[C@H]1CN(c2cc(F)c3c(c2)COC(=O)N3C)C(=O)O1 [Example 9, (R)-3-(8-fluoro-1-methyl-2-oxo-2,4-dihydro-1H-benzo[d][1,3]oxazin-6-yl)-N-methyl-2-oxooxazolidine-5-carboxamide] | 8 (≈ 24.7 µM) | 8 (≈ 24.7 µM) | 8 (≈ 24.7 µM)
CCC(=O)NC[C@H]1CN(c2cc(F)c3c(c2)CCOC(=O)N3C)C(=O)O1 [Example 16, N-{[(5S)-3-(9-fluoro-1-methyl-2-oxo-1,2,4,5-tetrahydro-3,1-benzoxazepin-7-yl)-2-oxo-1,3-oxazolidin-5-yl]methyl}propanamide] | 8 (≈ 21.9 µM) | 16 (≈ 43.8 µM) | 16 (≈ 43.8 µM)
COC(=O)NC[C@H]1CN(c2cc(F)c3c(c2)CCOC(=O)N3C)C(=O)O1 [Example 17, methyl [(5S)-3-(9-fluoro-1-methyl-2-oxo-1,2,4,5-tetrahydro-3,1-benzoxazepin-7-yl)-2-oxo-1,3-oxazolidin-5-yl]methylcarbamate] | 8 (≈ 21.8 µM) | 16 (≈ 43.6 µM) | 16 (≈ 43.6 µM)
CN1C(=O)OCCc2cc(N3C[C@H](C(N)=O)OC3=O)ccc21 [Example 18, (5R)-3-(1-methyl-2-oxo-1,2,4,5-tetrahydro-3,1-benzoxazepin-7-yl)-2-oxo-1,3-oxazolidine-5-carboxamide] | 32 (≈ 105 µM) | 16 (≈ 52.4 µM) | 32 (≈ 105 µM)
CNC(=O)[C@H]1CN(c2ccc3c(c2)CCOC(=O)N3C)C(=O)O1 [Example 19, (5R)—N-methyl-3-(1-methyl-2-oxo-1,2,4,5-tetrahydro-3,1-benzoxazepin-7-yl)-2-oxo-1,3-oxazolidine-5-carboxamide] | 32 (≈ 100 µM) | 16 (≈ 50.1 µM) | 32 (≈ 100 µM)
CC(=O)NC[C@H]1CN(c2ccc3c(c2)CCOC(=O)N3C)C(=O)O1 [Example 20, N-{[(5S)-3-(1-methyl-2-oxo-1,2,4,5-tetrahydro-3,1-benzoxazepin-7-yl)-2-oxo-1,3-oxazolidin-5-yl]methyl}acetamide] | 4 (≈ 12 µM) | 8 (≈ 24 µM) | 8 (≈ 24 µM)
CCC(=O)NC[C@H]1CN(c2ccc3c(c2)CCOC(=O)N3C)C(=O)O1 [Example 21, N-{[(5S)-3-(1-methyl-2-oxo-1,2,4,5-tetrahydro-3,1-benzoxazepin-7-yl)-2-oxo-1,3-oxazolidin-5-yl]methyl}propanamide] | 8 (≈ 23 µM) | 8 (≈ 23 µM) | 8 (≈ 23 µM)
COC(=O)NC[C@H]1CN(c2ccc3c(c2)CCOC(=O)N3C)C(=O)O1 [Example 22, methyl [(5S)-3-(1-methyl-2-oxo-1,2,4,5-tetrahydro-3,1-benzoxazepin-7-yl)-2-oxo-1,3-oxazolidin-5-yl]methylcarbamate] | 8 (≈ 22.9 µM) | 8 (≈ 22.9 µM) | 8 (≈ 22.9 µM)

The next lines start with the values.

MIC (S. pneumoniae SV1 SP-3) [µg/mL] | MIC (S. aureus UC-76 SA-1) [µg/mL] | MIC (E. faecalis MGH-2 EF 1-1) [µg/mL] | Compound
2 (≈ 6.26 µM) | 4 (≈ 12.5 µM) | 4 (≈ 12.5 µM) | CC(=O)NC[C@H]1CN(c2ccc3c(c2)COC(=O)N3C)C(=O)O1 [Example 1, (S)—N-((3-(1-methyl-2-oxo-2,4-dihydro-1H-benzo[d][1,3]oxazin-6-yl)-2-oxooxazolidin-5-yl)methyl)acetamide]
4 (≈ 12 µM) | 8 (≈ 24 µM) | 8 (≈ 24 µM) | CCC(=O)NC[C@H]1CN(c2ccc3c(c2)COC(=O)N3C)C(=O)O1 [Example 2, (S)—N-((3-(1-methyl-2-oxo-2,4-dihydro-1H-benzo[d][1,3]oxazin-6-yl)-2-oxooxazolidin-5-yl)methyl)propionamide]
4 (≈ 11.9 µM) | 4 (≈ 11.9 µM) | 4 (≈ 11.9 µM) | COC(=O)NC[C@H]1CN(c2ccc3c(c2)COC(=O)N3C)C(=O)O1 [Example 3, (S)-methyl (3-(1-methyl-2-oxo-2,4-dihydro-1H-benzo[d][1,3]oxazin-6-yl)-2-oxooxazolidin-5-yl)methylcarbamate]
4 (≈ 13.7 µM) | 4 (≈ 13.7 µM) | 16 (≈ 54.9 µM) | CN1C(=O)OCc2cc(N3C[C@H](C(N)=O)OC3=O)ccc21 [Example 4, (R)-3-(1-methyl-2-oxo-2,4-dihydro-1H-benzo[d][1,3]oxazin-6-yl)-2-oxooxazolidine-5-carboxamide]
4 (≈ 13.1 µM) | 4 (≈ 13.1 µM) | 16 (≈ 52.4 µM) | CNC(=O)[C@H]1CN(c2ccc3c(c2)COC(=O)N3C)C(=O)O1 [Example 5, (R)—N-methyl-3-(1-methyl-2-oxo-2,4-dihydro-1H-benzo[d][1,3]oxazin-6-yl)-2-oxooxazolidine-5-carboxamide]
2 (≈ 5.66 µM) | 8 (≈ 22.6 µM) | 8 (≈ 22.6 µM) | CN1C(=O)OCc2cc(N3C[C@H](CNC(=O)OCF)OC3=O)ccc21 [Example 6, (S)-Fluoromethyl (3-(1-methyl-2-oxo-2,4-dihydro-1H-benzo[d][1,3]oxazin-6-yl)-2-oxooxazolidin-5-yl)methylcarbamate]
2 (≈ 5.93 µM) | 2 (≈ 5.93 µM) | 4 (≈ 11.9 µM) | CC(=O)NC[C@H]1CN(c2cc(F)c3c(c2)COC(=O)N3C)C(=O)O1 [Example 10, (S)—N-((3-(8-fluoro-1-methyl-2-oxo-2,4-dihydro-1H-benzo[d][1,3]oxazin-6-yl)-2-oxooxazolidin-5-yl)methyl)acetamide]
4 (≈ 11.4 µM) | 4 (≈ 11.4 µM) | 4 (≈ 11.4 µM) | CCC(=O)NC[C@H]1CN(c2cc(F)c3c(c2)COC(=O)N3C)C(=O)O1 [Example 11, (S)—N-((3-(8-fluoro-1-methyl-2-oxo-2,4-dihydro-1H-benzo[d][1,3]oxazin-6-yl)-2-oxooxazolidin-5-yl)methyl)propionamide]
4 (≈ 11.3 µM) | 4 (≈ 11.3 µM) | 8 (≈ 22.6 µM) | COC(=O)NC[C@H]1CN(c2cc(F)c3c(c2)COC(=O)N3C)C(=O)O1 [Example 12, (S)-methyl (3-(8-fluoro-1-methyl-2-oxo-2,4-dihydro-1H-benzo[d][1,3]oxazin-6-yl)-2-oxooxazolidin-5-yl)methylcarbamate]
4 (≈ 11.4 µM) | 8 (≈ 22.8 µM) | 8 (≈ 22.8 µM) | CC(=O)NC[C@H]1CN(c2cc(F)c3c(c2)CCOC(=O)N3C)C(=O)O1 [Example 15, N-{[(SS)-3-(9-fluoro-1-methyl-2-oxo-1,2,4,5-tetrahydro-3,1-benzoxazepin-7-yl)-2-oxo-1,3-oxazolidin-5-yl]methyl}acetamide]
